The assay has as its target T1, Human recombinant PTP-1B (Homo sapiens, UniProt P18031).
T1 construct: Human recombinant PTP-1B, containing amino acids 1-321, fused to GST enzyme; GST (glutathione S-transferase)
T1 sequence (P18031 1-321): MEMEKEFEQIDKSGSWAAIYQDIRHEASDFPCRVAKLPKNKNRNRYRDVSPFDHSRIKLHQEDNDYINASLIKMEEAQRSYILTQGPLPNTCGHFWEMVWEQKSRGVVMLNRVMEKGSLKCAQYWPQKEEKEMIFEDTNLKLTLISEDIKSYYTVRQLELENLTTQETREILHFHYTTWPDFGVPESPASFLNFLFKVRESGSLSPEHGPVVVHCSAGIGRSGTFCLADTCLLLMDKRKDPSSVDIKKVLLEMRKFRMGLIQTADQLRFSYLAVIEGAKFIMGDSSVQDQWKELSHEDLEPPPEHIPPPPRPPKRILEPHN
Kind of assay: Assay for PTP-1B Activity (pNPP substrate). The class given is biochemical. The following applies: human recombinant PTP-1B (1-321) GST fusion, 2 mM pNPP, pH 7.4, 30° C., 20 min; read-out: Activity Code (IC50 range). An excerpt:
The activity of the compounds as modulators of protein tyrosine phosphatase, including PTP-1B, may be measured in standard assays (see, e.g., Examples 41 and 42). Briefly, the assay described herein employs human recombinant PTP-1B and a pNPP substrate in a rescue assay.
Assay for PTP-1B Activity
Enzyme: Human recombinant PTP-1B, containing amino acids 1-321, fused to GST enzyme (glutathione S-transferase) purified by affinity chromatography (Huyer et al, 1997, J. Biol. Chem., 272, 843-852).
pNPP: p-Nitrophenyl Phosphate (Calbiochem)
Assay Buffer: 50 mM HEPES (pH 7.4), 100 mM NaCl, 2 mM EDTA, 3 mM DTT
(5×) pNPP substrate: 10 mM pNPP in assay buffer
Enzyme: 1 mg/ml PTP1B (1-321), dilute 1:200 in assay buffer
Assay buffer: 50 mM HEPES (pH 7.4), 100 mM NaCl, 2 mM EDTA, 3 mM DTT
Enzyme dilution buffer: 50 mM HEPES (pH 7.4), 100 mM NaCl, 2 mM EDTA, 3 mM DTT
Substrate 198 mM p-Nitrophenyl Phosphate (pNPP) store at 4° C.
The assay was carried out at 30° C. in 96 well plates. The reaction mixture in 60 ul contained 50 mM HEPES (pH 7.4), 100 mM NaCl, 2 mM EDTA, 3 mM DTT, and 2 mM p-Nitrophenyl Phosphate (pNPP). 5 ul of the test compound (inhibitor) dissolved in DMSO or DMSO alone for control was added to each well and the plate was mixed for 2 min. The reaction was initiated by adding 20 ul of diluted PTP1B (5 ng/ul in 50 mM HEPES (pH 7.4), 100 mM NaCl, 2 mM EDTA, 3 mM DTT). After 20 min at 30° C., the enzyme reaction was terminated by adding 100 ul of 2 M K2CO3 to each well. The phosphatase activity was detected by using Victor II plate reader (Wallac) with absorbance detection at 405 nm. All the assays were done at least in duplicate. The initial rate of pNP is plotted against the concentration of inhibitor.

Take `O=c1n(Cc2ccccc2)cc(-c2ccsc2)n1Cc1ccc(C(F)(F)P(=O)(O)O)c(Br)c1` [Compound 39, {[4-(3-Benzyl-2-oxo-5-thiophen-3-yl-2,3-dihydro-imidazol-1-ylmethyl)-2-bromo-phenyl]-difluoro-methyl}-phosphonic acid]: the half-maximal inhibitory concentration (IC50) was in the range of 250 to 2500 nM.
With `O=C(O)/C=C/c1ccc(-c2cn(C3CC3)c(=O)n2Cc2ccc(C(F)(F)P(=O)(O)O)c(Br)c2)cc1` [Compound 46, 3-(4-{3-[3-Bromo-4-(difluoro-phosphono-methyl)-benzyl]-1-cyclopropyl-2-oxo-2,3-dihydro-1H-imidazol-4-yl}-phenyl)-acrylic acid], the half-maximal inhibitory concentration (IC50) is less than 99 nM.
In the case of `COC(=O)c1ccc(-c2cn(Cc3ccccc3)c(=O)n2Cc2ccc(C(F)(F)P(=O)(O)O)c(Cl)c2)cc1` [Compound 10, 4-{1-Benzyl-3-[3-chloro-4-(difluoro-phosphono-methyl)-benzyl]-2-oxo-2,3-dihydro-1H-imidazol-4-yl}-benzoic acid methyl ester], the half-maximal inhibitory concentration (IC50) was 250 to 2500 nM.
As for `O=C(O)c1ccc(-c2cn(Cc3ccc(F)cc3)c(=O)n2Cc2ccc(C(F)(F)P(=O)(O)O)c(Br)c2)cc1` [Compound 13, 4-[3-[3-Bromo-4-(difluoro-phosphono-methyl)-benzyl]-1-(4-fluoro-benzyl)-2-oxo-2,3-dihydro-1H-imidazol-4-yl]-benzoic acid], the figure is 250 to 2500 nM; as for `CS(=O)(=O)c1ccc(-c2cn(Cc3cccc(N)c3)c(=O)n2Cc2ccc(C(F)(F)P(=O)(O)O)c(Br)c2)cc1` [Compound 32, ({4-[3-(3-Amino-benzyl)-5-(4-methanesulfonyl-phenyl)-2-oxo-2,3-dihydro-imidazol-1-ylmethyl]-2-bromo-phenyl}-difluoro-methyl)-phosphonic acid], less than 99 nM; as for `CC(=O)Nc1cccc(Cn2cc(-c3ccc(S(C)(=O)=O)cc3)n(Cc3ccc(C(F)(F)P(=O)(O)O)c(Br)c3)c2=O)c1` [Compound 40, ({4-[3-(3-Acetylamino-benzyl)-5-(4-methanesulfonyl-phenyl)-2-oxo-2,3-dihydro-imidazol-1-ylmethyl]-2-bromo-phenyl}-difluoro-methyl)-phosphonic acid], less than 99 nM.
For `Cn1cc(-c2ccc(S(C)(=O)=O)cc2)n(Cc2ccc(C(F)(F)P(=O)(O)OCOC(=O)C(C)(C)C)c(Br)c2)c1=O` [Compound 69, 2,2-Dimethyl-propionic acid ({2-bromo-4-[5-(4-methanesulfonyl-phenyl)-3-methyl-2-oxo-2,3-dihydro-imidazol-1-ylmethyl]-phenyl}-difluoro-methyl)-hydroxy-phosphinoyloxymethyl ester], the IC50 fell in the range of 2500 to 25000 nM.
The result for `CNC(=O)c1ccc(-c2cn(Cc3ccccc3)c(=O)n2Cc2ccc(C(F)(F)P(=O)(O)O)c(Br)c2)cc1` [Compound 28, ({4-[3-Benzyl-5-(4-methylcarbamoyl-phenyl)-2-oxo-2,3-dihydro-imidazol-1-ylmethyl]-2-bromo-phenyl}-difluoro-methyl)-phosphonic acid] reads 250 to 2500 nM.
Turning to `O=C(O)c1ccc(-c2cn(C3CC3)c(=O)n2Cc2ccc(C(F)(F)P(=O)(O)O)c(Br)c2)cc1` [Compound 35, 4-{3-[3-Bromo-4-(difluoro-phosphono-methyl)-benzyl]-1-cyclopropyl-2-oxo-2,3-dihydro-1H-imidazol-4-yl}-benzoic acid], the half-maximal inhibitory concentration (IC50) is 250 to 2500 nM.
`O=C(O)c1ccc(-c2c[nH]c(=O)n2Cc2ccc(C(F)(F)P(=O)(O)O)c(Br)c2)cc1` [Compound 7, 4-{3-[3-Bromo-4-(difluoro-phosphono-methyl)-benzyl]-2-oxo-2,3-dihydro-1H-imidazol-4-yl}-benzoic acid]: the IC50 was in the range of 250 to 2500 nM.
The result for `COC(=O)c1ccc(-c2cn(Cc3ccccn3)c(=O)n2Cc2ccc(C(F)(F)P(=O)(O)O)c(Br)c2)cc1` [Compound 25, 4-{3-[3-Bromo-4-(difluoro-phosphono-methyl)-benzyl]-2-oxo-1-pyridin-2-ylmethyl-2,3-dihydro-1H-imidazol-4-yl}-benzoic acid methyl ester] reads 100 to 249 nM.

In general, IC50 refers to the concentration at which inhibition is half-maximal.

(Values after US20080070867A1, “2-Imidazolone and 2-Imidazolidinone Heterocyclic Inhibitors of Tyrosine Phosphatases” (Metabasis Therapeutics, Inc., priority 2005, published 2008).)
